Read-outs that look alike come from different tables or passages of the source.
Target: T1, human kinase Mps-1 (Homo sapiens, UniProt P33981)
T1 construct: N-terminally GST-tagged human full length recombinant Mps-1 kinase; GST (N); purchased Invitrogen, Karslruhe, Germany PV4071
T1 sequence (P33981 1-857): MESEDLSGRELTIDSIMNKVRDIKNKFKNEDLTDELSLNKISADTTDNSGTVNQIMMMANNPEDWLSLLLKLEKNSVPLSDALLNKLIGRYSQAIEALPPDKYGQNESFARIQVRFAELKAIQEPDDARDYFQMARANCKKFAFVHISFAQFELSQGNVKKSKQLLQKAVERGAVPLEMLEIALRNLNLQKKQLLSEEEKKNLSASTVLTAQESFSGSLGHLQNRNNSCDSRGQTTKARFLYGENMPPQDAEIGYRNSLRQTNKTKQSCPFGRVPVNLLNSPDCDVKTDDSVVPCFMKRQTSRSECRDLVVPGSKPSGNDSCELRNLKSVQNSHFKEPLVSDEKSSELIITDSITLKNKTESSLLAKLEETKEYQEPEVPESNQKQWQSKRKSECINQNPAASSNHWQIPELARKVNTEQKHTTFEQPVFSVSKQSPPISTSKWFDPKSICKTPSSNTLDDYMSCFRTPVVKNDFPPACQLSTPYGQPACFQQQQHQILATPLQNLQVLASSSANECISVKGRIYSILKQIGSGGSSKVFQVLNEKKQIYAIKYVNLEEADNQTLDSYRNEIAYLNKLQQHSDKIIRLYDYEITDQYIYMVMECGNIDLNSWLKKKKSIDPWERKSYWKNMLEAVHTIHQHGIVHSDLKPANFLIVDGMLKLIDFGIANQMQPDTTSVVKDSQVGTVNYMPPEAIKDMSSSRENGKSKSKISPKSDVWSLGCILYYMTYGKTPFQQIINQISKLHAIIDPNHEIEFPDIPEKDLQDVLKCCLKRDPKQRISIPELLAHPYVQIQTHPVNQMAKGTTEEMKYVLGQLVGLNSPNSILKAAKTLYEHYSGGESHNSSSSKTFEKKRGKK
Assay: Mps-1 kinase assay (TR-FRET)
Type: biochemical
Conditions: N-terminally GST-tagged human full length recombinant Mps-1, 10 μM ATP, 1 μM biotinylated peptide substrate, 60 min at 22° C.

IC50 (read-out: Mps1 IC50) [nM]	Compound	IC50 (Mps1 IC50 [nM]) [nM]
74.9	COC(=O)CCNc1nccn2c(-c3ccc(C(=O)NC4CC4)cc3)cnc12 [Example 4-6, methyl N-{3-[4-(cyclopropylcarbamoyl)phen-yl]imidazo[1,2-a]pyrazin-8-yl}-beta-alaninate]	
	Cc1cc(-c2cnc3c(NCc4ccccc4F)nccn23)ccc1C(=O)NC1CC1 [Example 7-97, N-cyclopropyl-4-{8-[(2-fluorobenzyl)amino]imi-dazo[1,2-a]pyrazin-3-yl}-2-methylbenzamide]	31.6
2030	O=C(NC1CC1)c1ccc(-c2cnc3c(NCc4ccccc4)nccn23)cc1O [Example 7-75, 4-[8-(benzylamino)imidazo[1,2-a]pyrazin-3-yl]-N-cyclopropyl-2-hydroxybenzamide]	
29.7	CCCNc1nccn2c(-c3ccc(C(=O)NC4CC4)c(C)c3)cnc12 [Example 7-90, N-cyclopropyl-2-methyl-4-[8-(propylamino)imidazo[1,2-a]pyrazin-3-yl]benzamide]	
	Cc1cc(-c2cnc3c(NCc4ccc(F)cc4)nccn23)ccc1C(=O)NC1CC1 [Example 7-98, N-cyclopropyl-4-{8-[(4-fluorobenzyl)amino]imi-dazo[1,2-a]pyrazin-3-yl}-2-methylbenzamide]	39.6
513	O=C(NC1CC1)c1ccc(-c2cnc3c(NCc4cccnc4)nccn23)cc1Cl [Example 7-48, 2-chloro-N-cyclopropyl-4-{8-[(pyridin-3-ylmethyl)amino]imidazo[1,2-a]pyrazin-3-yl}benzamide]	
	O=C(NC1CC1)c1ccc(-c2cnc3c(NCc4ccccc4F)nccn23)cc1Cl [Example 7-37, 2-chloro-N-cyclopropyl-4-{8-[(2-fluorobenzyl)amino]imi-dazo[1,2-a]pyrazin-3-yl}benzamide]	93.8
	Cc1cc(-c2cnc3c(NCC(C)(C)O)nccn23)ccc1C(=O)NC1CC1 [Example 7-122, N-cyclopropyl-4-{8-[(2-hydroxy-2-methylpropyl)amino]imi-dazo[1,2-a]pyrazin-3-yl}-2-methylbenzamide]	171
	Cc1cc(-c2cnc3c(NCCC#N)nccn23)ccc1C(=O)NC1CC1 [Example 7-111, 4-{8-[(2-cyanoethyl)amino]imi-dazo[1,2-a]pyrazin-3-yl}-N-cyclopropyl-2-methylbenzamide]	49.7
	CC(C)(O)CNc1nccn2c(-c3ccc(C(=O)NC4CC4)c(O)c3)cnc12 [Example 7-87, N-cyclopropyl-2-hydroxy-4-{8-[(2-hydroxy-2-methylpropyl)amino]imi-dazo[1,2-a]pyrazin-3-yl}benzamide]	160
	COc1ccccc1CNc1nccn2c(-c3ccc(C(=O)NC4CC4)cc3)cnc12 [Example 4-8, N-cyclopropyl-4-{8-[(2-methoxybenzyl)amino]imi-dazo[1,2-a]pyrazin-3-yl}benzamide]	85.5
	COCCNc1nccn2c(-c3ccc(C(=O)NC4CC4)cc3)cnc12 [Example 7-2, N-cyclopropyl-4-{8-[(2-methoxyethyl)amino]imi-dazo[1,2-a]pyrazin-3-yl}benzamide]	272
	N#CCCNc1nccn2c(-c3ccc(C(=O)NC4CC4)c(O)c3)cnc12 [Example 7-81, 4-{8-[(2-cyanoethyl)amino]imi-dazo[1,2-a]pyrazin-3-yl}-N-cyclopropyl-2-hydroxybenzamide]	51.3
	O=C(NC1CC1)c1ccc(-c2cnc3c(NCC(O)C(F)(F)F)nccn23)cc1Cl (stereo not shown) [Example 7-55, 2-chloro-N-cyclopropyl-4-{8-[(3,3,3-trifluoro-2-hydroxypropyl)amino]imi-dazo[1,2-a]pyrazin-3-yl}benzamide]	175
341	O=C(NC1CC1)c1ccc(-c2cnc3c(NCCN4CCOCC4)nccn23)cc1 [Example 7-4, N-cyclopropyl-4-(8-{[2-(morpholin-4-yl)ethyl]amino}imidazo[1,2-a]pyrazin-3-yl)benzamide]	
	O=C(NC1CC1)c1ccc(-c2cnc3c(NCc4ccc(F)cc4)nccn23)cc1Cl [Example 7-38, 2-chloro-N-cyclopropyl-4-{8-[(4-fluorobenzyl)amino]imi-dazo[1,2-a]pyrazin-3-yl}benzamide]	112
	COc1cc(C(=O)NC2CC2)ccc1-c1cnc2c(NCC(C)C)nccn12 [Example 7-128, N-cyclopropyl-3-methoxy-4-{8-[(2-methylpropyl)amino]imi-dazo[1,2-a]pyrazin-3-yl}benzamide]	19.3

IC50 (read-out: Mps1 IC50) [nM]	Compound	IC50 (Mps1 IC50 [nM]) [nM]
	Cc1cc(-c2cnc3c(NCc4ccc(Cl)s4)nccn23)ccc1C(=O)NC1CC1 [Example 7-123, 4-(8-{[(5-chlorothiophen-2-yl)methyl]amino}imi-dazo[1,2-a]pyrazin-3-yl)-N-cyclopropyl-2-methylbenzamide]	22.5
	CC(C)CNc1nccn2c(-c3ccc(C(=O)NC4CC4)c(O)c3)cnc12 [Example 7-80, N-cyclopropyl-2-hydroxy-4-{8-[(2-methylpropyl)amino]imi-dazo[1,2-a]pyrazin-3-yl}benzamide]	15.5
	O=C(NC1CC1)c1ccc(-c2cnc3c(NCC4CCCO4)nccn23)cc1O (stereo not shown) [Example 7-72, N-cyclopropyl-2-hydroxy-4-{8-[(tetrahydrofuran-2-ylmethyl)amino]imi-dazo[1,2-a]pyrazin-3-yl}benzamide]	36.3
	Cc1cc(-c2cnc3c(NCCO)nccn23)ccc1C(=O)NC1CC1 [Example 7-91, N-cyclopropyl-4-{8-[(2-hydroxyethyl)amino]imi-dazo[1,2-a]pyrazin-3-yl}-2-methylbenzamide]	363
	COCCCNc1nccn2c(-c3ccc(C(=O)NC4CC4)cc3)cnc12 [Example 7-3, N-cyclopropyl-4-{8-[(3-methoxypropyl)amino]imi-dazo[1,2-a]pyrazin-3-yl}benzamide]	95.8
	Cc1cc(-c2cnc3c(NCCC(C)C)nccn23)ccc1C(=O)NC1CC1 [Example 7-93, N-cyclopropyl-2-methyl-4-{8-[(3-methylbutyl)amino]imi-dazo[1,2-a]pyrazin-3-yl}benzamide]	13.2
	O=C(NC1CC1)c1ccc(-c2cnc3c(NCCC(F)(F)F)nccn23)cc1Cl [Example 7-56, 2-chloro-N-cyclopropyl-4-{8-[(3,3,3-trifluoropropyl)amino]imi-dazo[1,2-a]pyrazin-3-yl}benzamide]	43
244	O=C(NC1CC1)c1ccc(-c2cnc3c(NCCc4cccnc4)nccn23)cc1 [Example 7-23, N-cyclopropyl-4-(8-{[2-(pyridin-3-yl)ethyl]amino}imidazo[1,2-a]pyrazin-3-yl)benzamide]	
	O=C(NC1CC1)c1ccc(-c2cnc3c(NCCCO)nccn23)cc1Cl [Example 7-43, 2-chloro-N-cyclopropyl-4-{8-[(3-hydroxypropyl)amino]imi-dazo[1,2-a]pyrazin-3-yl}benzamide]	430
	Cc1ccccc1CNc1nccn2c(-c3ccc(C(=O)NC4CC4)cc3)cnc12 [Example 7-15, N-cyclopropyl-4-{8-[(2-methylbenzyl)amino]imi-dazo[1,2-a]pyrazin-3-yl}benzamide]	88.8
	Cc1cc(-c2cnc3c(NCC(C)C)nccn23)cc(C)c1C(=O)NC1CC1 [Example 1-2, N-cyclopropyl-2,6-dimethyl-4-{8-[(2-methylpropyl)amino]imi-dazo[1,2-a]pyrazin-3-yl}benzamide]	1230
	Cc1cc(-c2cnc3c(NCC(F)F)nccn23)ccc1C(=O)NC1CC1 [Example 7-118, N-cyclopropyl-4-{8-[(2,2-difluoroethyl)amino]imi-dazo[1,2-a]pyrazin-3-yl}-2-methylbenzamide]	70.3
	Cc1cc(-c2cnc3c(NCc4ccccc4Cl)nccn23)ccc1C(=O)NC1CC1 [Example 5-4, 4-{8-[(2-chlorobenzyl)amino]imi-dazo[1,2-a]pyrazin-3-yl}-N-cyclopropyl-2-methylbenzamide]	18.8
	COc1cc(CNc2nccn3c(-c4ccc(C(=O)NC5CC5)cc4)cnc23)cc(OC)c1OC [Example 7-13, N-cyclopropyl-4-{8-[(3,4,5-trimethoxybenzyl)amino]imi-dazo[1,2-a]pyrazin-3-yl}benzamide]	429
	O=C(NC1CC1)c1ccc(-c2cnc3c(NCC(O)COc4ccccc4)nccn23)cc1 (stereo not shown) [Example 7-17, N-cyclopropyl-4-{8-[(2-hydroxy-3-phenoxypropyl)amino]imi-dazo[1,2-a]pyrazin-3-yl}benzamide]	412
	O=C(NC1CC1)c1ccc(-c2cnc3c(NCc4cccs4)nccn23)cc1O [Example 7-76, N-cyclopropyl-2-hydroxy-4-{8-[(thiophen-2-ylmethyl)amino]imi-dazo[1,2-a]pyrazin-3-yl}benzamide]	35.8

Compound	IC50 (read-out: Mps1 IC50) [nM]	IC50 (Mps1 IC50 [nM]) [nM]
2-chloro-N-cyclopropyl-4- {8-[(2- sulfamoylethyl)amino]imi- dazo[1,2-a]pyrazin-3- yl}benzamide [Example 7-67]	250	
